pEC50: −log10 of the molar value.
Columns and labels:
[1] = tested on: Aspergillus niger; experiment: Inhibitory effect of Amphotericin required for antifungal activity against Aspergillus niger; type: functional
[2] = Effective concentration of Amphotericin required for hemolytic activity against 1% human erythrocytes; type: functional

| SMILES | Activity [1] | pEC50 [2] |
| --- | --- | --- |
| CC1OC(O[C@H]2/C=C/C=C/C=C/C=C/C=C/C=C/C=C/[C@H](C)[C@@H](O)[C@@H](C)[C@H](C)OC(=O)C[C@H](O)C[C@H](O)CC[C@@H](O)[C@H](O)C[C@H](O)C[C@@]3(O)O[C@@H](C2)[C@H](C(=O)O)[C@@H](O)[C@@H]3F)C(O)C(N)C1O (stereo partly specified) | 10 µg | 5.89 |
| C[C@@H]1[C@H](O)[C@@H](C)/C=C/C=C/C=C/C=C/C=C/C=C/C=C/[C@H](O[C@@H]2O[C@H](C)[C@@H](O)[C@H](N)[C@@H]2O)C[C@@H]2O[C@](O)(C[C@@H](O)C[C@@H](O)[C@H](O)CC[C@@H](O)C[C@@H](O)CC(=O)O[C@H]1C)C[C@H](O)[C@H]2C(=O)O [AMPHOTERICIN B] | 10 µg | 5.85 |
| CC1OC(O[C@H]2/C=C/C=C/C=C/C=C/C=C/C=C/C=C/[C@H](C)[C@@H](O)[C@@H](C)[C@H](C)OC(=O)C[C@H](O)C[C@H](O)CC[C@@H](O)[C@H](O)C[C@H](O)C[C@]3(O)C[C@H](O)[C@@H](C(=O)O)[C@H](C2)O3)C(O)C(NCc2ccc(F)cc2)C1O (stereo partly specified) | >50 µg | 5.59 |

— ChEMBL document CHEMBL1142753, “Bioactive fluorinated derivative of amphotericin B” (Bioorg Med Chem Lett, 2005)
